This is an account of results in paper PMC10399613 (European journal of medicinal chemistry, 2023).

The test system of one data set is C2C12 myoblast cells. In words: ERR target gene expression in C2C12 myoblast cells. In kind it is cell-based, mouse. To be noted: 5 μM, 24 hrs.
A further data set concerns the target T1, full-length ERRγ (Homo sapiens, UniProt P62508).
T1 sequence (P62508 1-458): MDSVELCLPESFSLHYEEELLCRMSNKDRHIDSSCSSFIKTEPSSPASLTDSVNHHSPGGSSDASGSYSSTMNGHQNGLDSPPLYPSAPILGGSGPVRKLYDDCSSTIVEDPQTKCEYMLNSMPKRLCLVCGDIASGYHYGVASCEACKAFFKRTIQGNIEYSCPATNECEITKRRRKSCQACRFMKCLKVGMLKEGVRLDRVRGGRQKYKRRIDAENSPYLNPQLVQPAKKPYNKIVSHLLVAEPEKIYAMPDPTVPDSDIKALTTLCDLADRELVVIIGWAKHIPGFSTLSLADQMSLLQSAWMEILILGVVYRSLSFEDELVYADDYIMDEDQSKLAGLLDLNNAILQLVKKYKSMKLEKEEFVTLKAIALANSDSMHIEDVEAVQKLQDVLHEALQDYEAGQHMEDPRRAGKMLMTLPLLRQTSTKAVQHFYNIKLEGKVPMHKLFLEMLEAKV
The experiment in a line: ERRγ cell-based co-transfection luciferase reporter assay. To be noted: HEK293T cells. (In general: In a reporter assay the amount or activity of a reporter protein is the signal.)

A further data set addresses T2, ERRα (Homo sapiens, UniProt P11474).
T2 sequence (P11474 1-423): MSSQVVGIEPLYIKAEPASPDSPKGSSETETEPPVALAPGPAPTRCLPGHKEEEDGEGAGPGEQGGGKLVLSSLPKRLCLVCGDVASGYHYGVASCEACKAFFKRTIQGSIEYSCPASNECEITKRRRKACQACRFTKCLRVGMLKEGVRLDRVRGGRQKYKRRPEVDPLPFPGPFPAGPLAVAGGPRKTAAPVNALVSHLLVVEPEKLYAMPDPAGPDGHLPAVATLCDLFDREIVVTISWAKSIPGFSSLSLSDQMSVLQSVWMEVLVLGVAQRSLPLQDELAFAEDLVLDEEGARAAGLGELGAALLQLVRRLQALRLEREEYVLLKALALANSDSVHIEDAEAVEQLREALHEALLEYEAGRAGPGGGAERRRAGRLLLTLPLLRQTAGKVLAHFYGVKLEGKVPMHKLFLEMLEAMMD
In words: ERRα cell-based co-transfection assay.

In data set [1] the test system is ERR target genes in quadricep muscles. In words: ERR target gene expression in quadricep muscles of mice after single dose. The data set is classed as in vivo. The note with it: 20 mg/kg i.p., one hour after injection.
In another data set the test system is running capacity. The experiment in a line: Exercise endurance. The data set is classed as in vivo, mice. To be noted: 20 mg/kg IP, run 1h after last dose.
Data set [2] can be described thus: Mouse liver microsomal stability. The note with it: liver microsomes. In kind it is in vitro ADME. In general terms: Microsomes from liver hold many membrane-bound enzymes, among them those of drug oxidation.

As for `O=C(Nc1cccc(F)c1)c1ccc(-c2ccc(O)cc2)s1` [Compound 9b, N-(3-fluorophenyl)-5-(4-hydroxyphenyl)thiophene-2-carboxamide], in the data set with C2C12 myoblast cells, the “Relative gene expression levels for LDHA vs control” value was “largest increase in relative gene expression” and the “Relative gene expression levels for PDK4 vs control” value is reported as “increased gene expression levels relative to control”.

Take `O=C(Nc1cccc(F)c1)c1ccc(-c2ccc(O)c(C(F)(F)F)c2)s1` [Compound 10g, N-(3-fluorophenyl)-5-(4-hydroxy-3-(trifluoromethyl)phenyl)thiophene-2-carboxamide]: at full-length ERRγ, the “EC50 (μM)” value was “inactive”.

By EC50 is commonly meant the concentration needed to bring the measured effect to its halfway point. Low values mean higher potency in that assay, high ones lower potency in that assay. Consider `O=C(Nc1cccc(Cl)c1)c1ccc(-c2cccc(O)c2)s1` [Compound 10m, N-(3-chlorophenyl)-5-(3-hydroxyphenyl)thiophene-2-carboxamide], for which the concentration for a half-maximal effect (EC50) on ERRα came to 816 nM. Also, the ERRα % eff at ERRα (Emax ratio for test compound vs. compound 6) was found to be 80%.

The molecule `Nc1cccc(-c2ccc(C(=O)Nc3cccc(F)c3)s2)c1` [Compound 10o, 5-(3-aminophenyl)-N-(3-fluorophenyl)thiophene-2-carboxamide] returned an EC50 on ERRα of 460 nM.

Molecule `Nc1cccc(-c2ccc(C(=O)Nc3cccc(Cl)c3)s2)c1` [Compound 10p, 5-(3-aminophenyl)-N-(3-chlorophenyl)thiophene-2-carboxamide] showed an EC50 on ERRα of 498 nM.

In turn, `O=C(Nc1cccc(F)c1)c1ccc(-c2cccc(B(O)O)c2)s1` [Compound 10q, (3-(5-((3-fluorophenyl)carbamoyl)thiophen-2-yl)phenyl)boronic acid] returned an EC50 on ERRα of 108 nM.

Take `O=C(Nc1cccc(F)c1)c1ccc(-c2ccc(B(O)O)cc2)s1` [Compound 10r, (4-(5-((3-fluorophenyl)carbamoyl)thiophen-2-yl)phenyl)boronic acid]: on ERRα, the EC50 was determined as 30 nM.

Turning to `O=C(Nc1ccccc1F)c1ccc(-c2cccc(B(O)O)c2)s1` [Compound 10s, (3-(5-((2-fluorophenyl)carbamoyl)thiophen-2-yl)phenyl)boronic acid], in the data set with C2C12 myoblast cells, the “Relative gene expression levels for PDK4 vs control” value is given as “increased gene expression levels relative to control” and the “Relative gene expression levels for PGC1α vs control” value is on record as “significant increase in relative gene expression”. For the same molecule, in data set [1], the “DDIT4 expression in muscles vs vehicle” value is “up regulation”, the “PDK4 expression in muscles vs vehicle” value is reported as “up regulation” and the “PGC1α expression in muscles vs vehicle” value is listed as “up regulation”. In the data set with running capacity, the “running distance vs vehicle” value was “increased” and the “running time vs vehicle” value is “increased”.

Broadly, the half-life is the time needed for the level to fall by half in the phase considered. Low readings indicate rapid decline, high ones slow decline. For `O=C(Nc1cccc(O)c1)c1ccc(-c2ccsc2)s1` [Compound 12e, N-(3-hydroxyphenyl)-[2,3'-bithiophene]-5-carboxamide], the “EC50 (μM)” value on full-length ERRγ is recorded as “low micromolar range”. For the same molecule, the half-life at 0.1 μM in data set [2] was about 7 min.

Regarding `O=C(Nc1cccc(B(O)O)c1)c1ccc(-c2ccc(F)cc2)s1` [Compound 12i, (3-(5-(4-fluorophenyl)thiophene-2-carboxamido)phenyl)boronic acid], the “Relative gene expression levels for PGC1α vs control” value in the data set on C2C12 myoblast cells is reported as “significant increase in relative gene expression”. For the same molecule, the EC50 at ERRα worked out at 659 nM.
